# Values of other authors as cited in patent US7795226B2, “Control of radiation injury” (Biotempt B.V., priority 2006, dated 2010).
# Assays:
# gamma-irradiated mice [1] = conditions: cited from earlier work
# gamma-irradiated mice [2] = conditions: sc administration prior to WBI; from probit survival curves; cited from earlier work
# radiation exposure = conditions: in vivo; cited from earlier work
compound,measurement,setting,value
O=c1c(-c2ccc(O)cc2)coc2cc(O)cc(O)c12 [genisteine],Dose reduction Factor (DRF),"gamma-irradiated mice [1]; best dose 200 mg/kg, 24 hours before irradiation",1.16
same,radioprotection (in words),gamma-irradiated mice [1]; given one hour prior to whole body irradiation,no radioprotection was observed
"C[C@]12CC[C@H]3[C@@H](CC=C4C[C@@H](O)CC[C@@]43C)[C@@H]1CC[C@@H]2O [Peptide 5-AED, 5-androstenediol]",dose reduction factor,gamma-irradiated mice [2],1.3
"O=C(O)c1ccc(/C=C/S(=O)(=O)Cc2ccc(Cl)cc2)cc1 [ON-01210, 4-carboxystyrl-4-chlorobenzylsulfone]",radiation protection activity (in words),radiation exposure,protective only if it is given pre-radiation exposure
